Experimental data: patent publication US11820762B2, “Compounds as potential therapeutic agents targeting various neurodegenerative diseases” (The Hong Kong University of Science and Technology, priority 2020, dated 2023)

Legend:
[1] = system: RNA (G4C2)2 (SEQ ID NO: 8) G4; test: 1D 1H-NMR titration of RNA (G4C2)2 G4; format: binding; details: ratios 1:3, 1:5, 1:10
Experimental: (§1) Single […] were purchased from Integrated DNA Technologies (IDT) and Takara. Single-strand DNA/RNA sample at 100 μM was then annealed by heating up to 95° C. for 15 mins, and slowly cooled to room temperature in the annealing buffer (70 mM KCl, 20 mM potassium phosphate (pH 7.0)) for overnight. The final NMR samples contained 0.1 mM DNA or RNA in 70 mM KCl and 20 mM potassium phosphate buffer (pH 7.0).
The 1D ^1H-NMR spectra were performed at 25° C. All compounds were dissolved in isotope-labeled d6-DMSO (Sigma-Aldrich) at about 50 mM concentration, working as stock solutions. To avoid chemical shift changes of DNA/RNA G4 resulted from d6-DMSO addition, […] d6-DMSO was added into 500 μL of 0.1 mM DNA/RNA G4 solution in the NMR buffer (20 mM potassium phosphate buffer and 70 mM KCl, pH 7.0, 10% D2O) and then 1D ^1H-NMR spectrum was recorded as a reference. During NMR titration experiments of adding each compound into the DNA/RNA G4 solution, the maximal volume of 10 μL of each compound in d6-DMSO solution was regarded as a final data point. […]

[2] = system: DNA (G4C2)2 (SEQ ID NO: 4) G4; test: 1D 1H-NMR titration of DNA (G4C2)2 G4; format: binding; details: cA at 1:1, 1:5, 1:10
Experimental: as §1
(§2) The 1D ^1H-NMR spectra were performed at 25° C. All compounds were dissolved in isotope-labeled d6-DMSO (Sigma-Aldrich) at about 50 mM concentration, working as stock solutions. To avoid chemical shift changes of DNA/RNA G4 resulted from d6-DMSO addition, […] d6-DMSO was added into 500 μL of 0.1 mM DNA/RNA G4 solution in the NMR buffer (20 mM potassium phosphate buffer and 70 mM KCl, pH 7.0, 10% D2O) and then 1D ^1H-NMR spectrum was recorded as a reference. During NMR titration experiments of adding each compound into the DNA/RNA G4 solution, the maximal volume of 10 μL of each compound in d6-DMSO solution was regarded as a final data point.
(§3) In addition to the four-repeat G4C2 DNA G4, there are parallel and hybrid G4 conformations formed simultaneously by the two-repeat G4C2 DNA^38,39. […]

[3] = system: human telomeric variant htel21_T18 G4; test: 1D 1H-NMR titration of human telomeric variant htel21_T18 G4; format: binding; details: cA at 1:10
Experimental: as §1, §2, §3

[4] = system: human telomeric htel23 G4; test: 1D 1H-NMR titration of human telomeric htel23 G4; format: binding; details: 1:10 titration
Experimental: as §1, §2, §3

[5] = system: DNA G-quadruplex formed by chicken DNA replication origin; test: 1D 1H-NMR titration of chicken DNA G-quadruplex; format: binding; details: 1:3 titration
Experimental: as §1, §2, §3

[6] = system: GMR-GAL4-(G4C2)29 Drosophila; test: Drosophila feeding and external eye assay; format: in vivo; details: 100 μM in solid food during larval stage; day 7 after eclosion
Experimental: A fly line expressing 29 GGGGCC repeats (29R) (SEQ ID NO: 6), under the GMR-GAL4 promoter (GMR-GAL4-(G4C2)29 (SEQ ID NO: 6)), was used. Both GMR-GAL4-(G4C2)29 (SEQ ID NO: 6) and WT flies were raised at room temperature (25° C.) on a cornmeal medium supplemented with dry yeast. […] Parent flies for cross were set in solid food containing testing compound, and F1 larvae were thus fed with food continuously until eclosion. After eclosion, F1 flies were transferred to normal food containers without compounds.
Eye images of GMR-GAL4-(G4C2)29 (SEQ ID NO: 6) or WT adult flies at day 7 after eclosion were captured using a CCD camera on an Olympus stereomicroscope. Eye morphologies of flies in different treatment groups were compared to evaluate the retina degeneration level. The affected eye area and total eye area were measured to calculate the degeneration ratio by ImageJ.
We next treated WT Drosophila and Drosophila with GMR-GAL4 driver promoted expression of (G4C2)29-repeats (SEQ ID NO: 6) (GMR-GAL4-(G4C2)29) (SEQ ID NO: 6) with cA or cC by feeding larvae with compounds in solid food. DMSO was used as a negative control. The eyes of day 7 adult Drosophila with GMR-GAL4-(G4C2)29 (SEQ ID NO: 6) were much rougher than the same age WT fly, indicating eye degeneration (FIG. 8E). The affected eye degeneration area accounted for over 50% of the whole eye (FIG. 8F).

[7] = system: Neuro2a cells; test: Permeability on live cells (cell lysates analysed by UPLC-MS); format: in vitro ADME; details: 10, 20 μg/ml; 24 h, 48 h; UPLC-MS of lysates
Experimental: (§4) In addition, we also tested the permeability on live cells. Neuro2a cells treated with cA at different concentrations (10 μg/ml, 20 μg/ml) for different incubation time (24 h, 48 h) were lysed. Supernatants of cell lysates were collected and analyzed by UPLC-MS. Meanwhile, cell media from different treatment groups were used as control. […] In contrast, the intensity of cA signal was the same in the three corresponding cell media groups (FIG. 25, 4-6).

[8] = Parallel artificial membrane permeability assay (PAMPA); format: in vitro ADME; details: PAMPA
Experimental: 500 μL of 500 μM test compound and 200 μM Equilibrium Standards for each test compound were prepared. 5 μL DMSO plus 245 μL PBS served as blank control. Firstly, 300 μL PBS was added to each well in the acceptor plate. With the donor plate in its tray, 5 μL 4% Lecithin in Dodecane was added directly to the well membranes of the donor plate. 200 μL of each 500 μM test compound was added to duplicate wells of the donor plate. The donor plate was carefully placed into the acceptor plate wells and incubated at 37° C. for 18 hours. Then the liquid in acceptor plate wells was collected as Acceptor Solution for analysis. Absorbance spectrum from 200 nm to 500 nm in 10 nm intervals was read to determine the peak absorbance of test compounds and blank control.
as §4

| Structure (SMILES) | binding to RNA (G4C2)2 G4 by NMR titration [1] | binding to DNA (G4C2)2 G4 by NMR titration [2] | binding to htel21_T18 G4 by NMR titration [3] | binding to htel23 G4 by NMR titration [4] | binding to chicken DNA G-quadruplex by NMR titration [5] | eye degeneration phenotype [6] | entry into live cells [7] | permeability (PAMPA) [8] |
| --- | --- | --- | --- | --- | --- | --- | --- | --- |
| CC(=O)Cc1cc2c(c(O)c1C(=O)O)-c1c(c(O)c3oc4c(O[C@@H]5OC(C(=O)O)=C[C@H](O)[C@H]5O)cccc4c(=O)c3c1O)CC2 [cA, chrexanthomycin A] | Chemical shift changes were observed | neither with 1:1 (light brown), 1:5 (blue) nor 1:10 (pink) titration of cA made significant chemical shift changes | no obvious chemical shift changes | no obvious chemical shift changes | did not show binding | significantly rescuing the eye degeneration phenotype | could penetrate cell membrane and enter into cells | – |
| CC(=O)Cc1cc2c(c(O)c1C(=O)O)-c1c(c(O)c3oc4c(O[C@@H]5O[C@H](C(=O)O)[C@@H](O)[C@H](O)[C@H]5O)cccc4c(=O)c3c1O)CC2 [cC, chrexanthomycin C] | – | – | – | – | – | significantly rescuing the eye degeneration phenotype | – | good permeability |
